# From patent US20230085307A1, “PYRIDAZINONE COMPOUND AND HERBICIDE” (NISSAN CHEMICAL CORPORATION, priority 2019, published 2023)
# Columns and labels:
# oval-leafed pondweed = experiment: Test Example 1: herbicidal activity, application before weed generation under submerged conditions (Table 16, symbol C); assay type: in vivo, oval-leafed pondweed (Monochoria vaginalis); conditions: 320 g/ha applied herbicide
# Summary of the method: (§1)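 Submerged Wagner pots (alluvial soil, 4 cm water) sown with weed seeds and planted with 2.5-leaf rice seedlings; emulsifiable concentrate diluted in water applied to water surface on sowing day. Held in greenhouse at 25-30 °C; injury scored 0-5 by herbicidal rate after three weeks.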
# late watergrass = experiment: Test Example 1: herbicidal activity, application before weed generation under submerged conditions (Table 16, symbol A); assay type: in vivo, late watergrass (Echinochloa oryzicola); conditions: 320 g/ha applied herbicide
# Summary of the method: as §1
# barnyard grass [1] = experiment: Test Example 4: herbicidal effect by soil treatment (Table 19, symbol H); assay type: in vivo, barnyard grass (Echinochloa crus-galli); conditions: amount of applied herbicide 320 g/ha
# Summary of the method: (§2)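 Step 1: sow seeds in sterilized diluvial soil, cover ~1.5 cm. Step 2: spray diluted emulsion onto soil surface at predetermined rate. Step 3: greenhouse, 25–30° C, three weeks. Step 4: grade effect on each plant by earlier criteria.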
# southern crabgrass [2] = experiment: Test Example 4: herbicidal effect by soil treatment (Table 19, symbol F); assay type: in vivo, southern crabgrass (Digitaria ciliaris); conditions: amount of applied herbicide 320 g/ha
# Summary of the method: as §2
# Japanese bulrush = experiment: Test Example 1: herbicidal activity, application before weed generation under submerged conditions (Table 16, symbol B); assay type: in vivo, Japanese bulrush (Schoenoplectus juncoides); conditions: 320 g/ha applied herbicide
# Summary of the method: as §1
# velvetleaf [3] = experiment: Test Example 5: herbicidal effect by foliage application, plastic box (Table 20, symbol M); assay type: in vivo, velvetleaf (Abutilon theophrasti); conditions: foliage application, 320 g/ha, evaluated three weeks after application
# Summary of the method: (§3)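 Foliar spray test: emulsion formulation diluted in water to a set application rate, sprayed onto 14-day-old plants raised in diluvial soil at 25° C to 30° C under glass. Both herbicidal effect and crop effect rated visually three weeks later.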
# blackgrass [4] = experiment: Test Example 5: herbicidal effect by foliage application, plastic box (Table 20, symbol J); assay type: in vivo, blackgrass (Alopecurus myosuroides); conditions: foliage application, 320 g/ha, evaluated three weeks after application
# Summary of the method: as §3
# persian speedwell [5] = experiment: Test Example 5: herbicidal effect by foliage application, plastic box (Table 20, symbol R); assay type: in vivo, Persian speedwell (Veronica persica); conditions: foliage application, 320 g/ha, evaluated three weeks after application
# Summary of the method: as §3
# windgrass [6] = experiment: Test Example 4: herbicidal effect by soil treatment (Table 19, symbol L); assay type: in vivo, windgrass (Apera spica-venti); conditions: amount of applied herbicide 320 g/ha
# Summary of the method: as §2
# lambsquarters [7] = experiment: Test Example 5: herbicidal effect by foliage application, plastic box (Table 20, symbol O); assay type: in vivo, lambsquarters (Chenopodium album); conditions: foliage application, 320 g/ha, evaluated three weeks after application
# Summary of the method: as §3
# velvetleaf [8] = experiment: Test Example 4: herbicidal effect by soil treatment (Table 19, symbol M); assay type: in vivo, velvetleaf (Abutilon theophrasti); conditions: amount of applied herbicide 320 g/ha
# Summary of the method: as §2
# barnyard grass [9] = experiment: Test Example 5: herbicidal effect by foliage application, plastic box (Table 20, symbol H); assay type: in vivo, barnyard grass (Echinochloa crus-galli); conditions: foliage application, 320 g/ha, evaluated three weeks after application
# Summary of the method: as §3
# wild oat [10] = experiment: Test Example 4: herbicidal effect by soil treatment (Table 19, symbol I); assay type: in vivo, wild oat (Avena fatua); conditions: amount of applied herbicide 320 g/ha
# Summary of the method: as §2
# barnyard grass [11] = experiment: Test Example 3: herbicidal effect by foliage application, Wagner pot (Table 18, symbol H); assay type: in vivo, barnyard grass (Echinochloa crus-galli); conditions: amount of applied herbicide 320 g/ha
# Summary of the method: (§4)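 Plants were sown in alluvial soil held under 0.1–0.5 cm standing water and grown 14 days in a greenhouse at 25–30 °C. An emulsifiable formulation, water-diluted to the set dose, was then sprayed onto the foliage, and effects were scored three weeks later using previously defined criteria.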
# redroot pigweed [12] = experiment: Test Example 4: herbicidal effect by soil treatment (Table 19, symbol N); assay type: in vivo, redroot pigweed (Amaranthus retroflexus); conditions: amount of applied herbicide 320 g/ha
# Summary of the method: as §2
# green foxtail [13] = experiment: Test Example 4: herbicidal effect by soil treatment (Table 19, symbol G); assay type: in vivo, green foxtail (Setaria viridis); conditions: amount of applied herbicide 320 g/ha
# Summary of the method: as §2
# lambsquarters [14] = experiment: Test Example 4: herbicidal effect by soil treatment (Table 19, symbol O); assay type: in vivo, lambsquarters (Chenopodium album); conditions: amount of applied herbicide 320 g/ha
# Summary of the method: as §2
# rice flat sedge = experiment: Test Example 3: herbicidal effect by foliage application, Wagner pot (Table 18, symbol E); assay type: in vivo, rice flat sedge (Cyperus iria); conditions: amount of applied herbicide 320 g/ha
# Summary of the method: as §4
# persian speedwell [15] = experiment: Test Example 4: herbicidal effect by soil treatment (Table 19, symbol R); assay type: in vivo, Persian speedwell (Veronica persica); conditions: amount of applied herbicide 320 g/ha
# Summary of the method: as §2
# Italian ryegrass [16] = experiment: Test Example 4: herbicidal effect by soil treatment (Table 19, symbol K); assay type: in vivo, Italian ryegrass (Lolium multiflorum); conditions: amount of applied herbicide 320 g/ha
# Summary of the method: as §2
# green foxtail [17] = experiment: Test Example 5: herbicidal effect by foliage application, plastic box (Table 20, symbol G); assay type: in vivo, green foxtail (Setaria viridis); conditions: foliage application, 320 g/ha, evaluated three weeks after application
# Summary of the method: as §3
# chickweed [18] = experiment: Test Example 4: herbicidal effect by soil treatment (Table 19, symbol P); assay type: in vivo, common chickweed (Stellaria media); conditions: amount of applied herbicide 320 g/ha
# Summary of the method: as §2
# southern crabgrass [19] = experiment: Test Example 5: herbicidal effect by foliage application, plastic box (Table 20, symbol F); assay type: in vivo, southern crabgrass (Digitaria ciliaris); conditions: foliage application, 320 g/ha, evaluated three weeks after application
# Summary of the method: as §3
# redroot pigweed [20] = experiment: Test Example 5: herbicidal effect by foliage application, plastic box (Table 20, symbol N); assay type: in vivo, redroot pigweed (Amaranthus retroflexus); conditions: foliage application, 320 g/ha, evaluated three weeks after application
# Summary of the method: as §3
# Italian ryegrass [21] = experiment: Test Example 5: herbicidal effect by foliage application, plastic box (Table 20, symbol K); assay type: in vivo, Italian ryegrass (Lolium multiflorum); conditions: foliage application, 320 g/ha, evaluated three weeks after application
# Summary of the method: as §3
# wild oat [22] = experiment: Test Example 5: herbicidal effect by foliage application, plastic box (Table 20, symbol I); assay type: in vivo, wild oat (Avena fatua); conditions: foliage application, 320 g/ha, evaluated three weeks after application
# Summary of the method: as §3
# chickweed [23] = experiment: Test Example 5: herbicidal effect by foliage application, plastic box (Table 20, symbol P); assay type: in vivo, common chickweed (Stellaria media); conditions: foliage application, 320 g/ha, evaluated three weeks after application
# Summary of the method: as §3
# blackgrass [24] = experiment: Test Example 4: herbicidal effect by soil treatment (Table 19, symbol J); assay type: in vivo, blackgrass (Alopecurus myosuroides); conditions: amount of applied herbicide 320 g/ha
# Summary of the method: as §2
# windgrass [25] = experiment: Test Example 5: herbicidal effect by foliage application, plastic box (Table 20, symbol L); assay type: in vivo, windgrass (Apera spica-venti); conditions: foliage application, 320 g/ha, evaluated three weeks after application
# Summary of the method: as §3
# Chinese sprangletop = experiment: Test Example 3: herbicidal effect by foliage application, Wagner pot (Table 18, symbol D); assay type: in vivo, chinese sprangletop (Leptochloa chinensis); conditions: amount of applied herbicide 320 g/ha
# Summary of the method: as §4
SMILES,Herbicidal effect on C: oval-leafed pondweed (grade 0-5) (oval-leafed pondweed),Herbicidal effect on A: late watergrass (grade 0-5) (late watergrass),"H: barnyard grass, herbicidal effect rating (barnyard grass [1])","F: southern crabgrass, herbicidal effect rating (southern crabgrass [2])",Herbicidal effect on B: Japanese bulrush (grade 0-5) (Japanese bulrush),herbicidal effect on M: velvetleaf (velvetleaf [3]),herbicidal effect on J: blackgrass (blackgrass [4]),herbicidal effect on R: persian speedwell (persian speedwell [5]),"L: windgrass, herbicidal effect rating (windgrass [6])",herbicidal effect on O: lambsquarters (lambsquarters [7]),"M: velvetleaf, herbicidal effect rating (velvetleaf [8])",herbicidal effect on H: barnyard grass (barnyard grass [9]),"I: wild oat, herbicidal effect rating (wild oat [10])",herbicidal effect on H: barnyard grass (barnyard grass [11]),"N: redroot pigweed, herbicidal effect rating (redroot pigweed [12])","G: green foxtail, herbicidal effect rating (green foxtail [13])","O: lambsquarters, herbicidal effect rating (lambsquarters [14])",herbicidal effect on E: rice flat sedge (rice flat sedge),"R: persian speedwell, herbicidal effect rating (persian speedwell [15])","K: Italian ryegrass, herbicidal effect rating (Italian ryegrass [16])",other results
CCCCOc1ccc(-c2sc3ccc(Cl)cc3c2-c2c(O)c(C)nn(C)c2=O)cc1 [2-109],0 (Herbicidal rate of 5% or less (almost no effect)),0 (Herbicidal rate of 5% or less (almost no effect)),0 (Herbicidal rate of 5% or less (almost no effect)),0 (Herbicidal rate of 5% or less (almost no effect)),3 (Herbicidal rate of 40% or more and less than 70%),4 (Herbicidal rate of 70% or more and less than 90%),0 (Herbicidal rate of 5% or less (almost no effect)),5 (Herbicidal rate of 90% or more (almost completely withered)),0 (Herbicidal rate of 5% or less (almost no effect)),4 (Herbicidal rate of 70% or more and less than 90%),1 (Herbicidal rate of 5% or more and less than 20%),4 (Herbicidal rate of 70% or more and less than 90%),0 (Herbicidal rate of 5% or less (almost no effect)),4 (Herbicidal rate of 70% or more and less than 90%),4 (Herbicidal rate of 70% or more and less than 90%),0 (Herbicidal rate of 5% or less (almost no effect)),2 (Herbicidal rate of 20% or more and less than 40%),2 (Herbicidal rate of 20% or more and less than 40%),3 (Herbicidal rate of 40% or more and less than 70%),0 (Herbicidal rate of 5% or less (almost no effect)),"herbicidal effect on G: green foxtail (green foxtail [17]): 1 (Herbicidal rate of 5% or more and less than 20%); P: chickweed, herbicidal effect rating (chickweed [18]): 0 (Herbicidal rate of 5% or less (almost no effect)); herbicidal effect on F: southern crabgrass (southern crabgrass [19]): 0 (Herbicidal rate of 5% or less (almost no effect)); herbicidal effect on N: redroot pigweed (redroot pigweed [20]): 5 (Herbicidal rate of 90% or more (almost completely withered)); herbicidal effect on K: Italian ryegrass (Italian ryegrass [21]): 0 (Herbicidal rate of 5% or less (almost no effect)); herbicidal effect on I: wild oat (wild oat [22]): 0 (Herbicidal rate of 5% or less (almost no effect)); herbicidal effect on P: chickweed (chickweed [23]): 4 (Herbicidal rate of 70% or more and less than 90%); J: blackgrass, herbicidal effect rating (blackgrass [24]): 0 (Herbicidal rate of 5% or less (almost no effect)); herbicidal effect on L: windgrass (windgrass [25]): 0 (Herbicidal rate of 5% or less (almost no effect)); herbicidal effect on D: Chinese sprangletop (Chinese sprangletop): 2 (Herbicidal rate of 20% or more and less than 40%)"
COc1ccccc1-c1sc2ccc(I)cc2c1-c1c(O)c(C)nn(C)c1=O [2-130],0 (Herbicidal rate of 5% or less (almost no effect)),0 (Herbicidal rate of 5% or less (almost no effect)),0 (Herbicidal rate of 5% or less (almost no effect)),0 (Herbicidal rate of 5% or less (almost no effect)),3 (Herbicidal rate of 40% or more and less than 70%),3 (Herbicidal rate of 40% or more and less than 70%),0 (Herbicidal rate of 5% or less (almost no effect)),3 (Herbicidal rate of 40% or more and less than 70%),0 (Herbicidal rate of 5% or less (almost no effect)),2 (Herbicidal rate of 20% or more and less than 40%),0 (Herbicidal rate of 5% or less (almost no effect)),0 (Herbicidal rate of 5% or less (almost no effect)),0 (Herbicidal rate of 5% or less (almost no effect)),3 (Herbicidal rate of 40% or more and less than 70%),2 (Herbicidal rate of 20% or more and less than 40%),0 (Herbicidal rate of 5% or less (almost no effect)),3 (Herbicidal rate of 40% or more and less than 70%),4 (Herbicidal rate of 70% or more and less than 90%),0 (Herbicidal rate of 5% or less (almost no effect)),0 (Herbicidal rate of 5% or less (almost no effect)),"herbicidal effect on G: green foxtail (green foxtail [17]): 0 (Herbicidal rate of 5% or less (almost no effect)); P: chickweed, herbicidal effect rating (chickweed [18]): 0 (Herbicidal rate of 5% or less (almost no effect)); herbicidal effect on F: southern crabgrass (southern crabgrass [19]): 0 (Herbicidal rate of 5% or less (almost no effect)); herbicidal effect on N: redroot pigweed (redroot pigweed [20]): 5 (Herbicidal rate of 90% or more (almost completely withered)); herbicidal effect on K: Italian ryegrass (Italian ryegrass [21]): 0 (Herbicidal rate of 5% or less (almost no effect)); herbicidal effect on I: wild oat (wild oat [22]): 0 (Herbicidal rate of 5% or less (almost no effect)); herbicidal effect on P: chickweed (chickweed [23]): 5 (Herbicidal rate of 90% or more (almost completely withered)); J: blackgrass, herbicidal effect rating (blackgrass [24]): 0 (Herbicidal rate of 5% or less (almost no effect)); herbicidal effect on L: windgrass (windgrass [25]): 0 (Herbicidal rate of 5% or less (almost no effect)); herbicidal effect on D: Chinese sprangletop (Chinese sprangletop): 0 (Herbicidal rate of 5% or less (almost no effect))"
